Our source for the IC50 and A1/A2A values is patent publication US20110105493A1, “HETEROCYCLYL SUBSTITUTED ARYLINDENOPYRIMIDINES AND THEIR USE AS HIGHLY SELECTIVE ADENOSINE A2a RECEPTOR ANTAGONISTS” (priority 2009, published 2011).

Test [1] addresses T1, human adenosine A1 receptor (Homo sapiens, UniProt P30542).
T1 construct: expressed in transfected cells; host or cells: CHO-K1 cells with a cAMP inducible beta-galactosidase reporter gene
T1 sequence (P30542 1-326): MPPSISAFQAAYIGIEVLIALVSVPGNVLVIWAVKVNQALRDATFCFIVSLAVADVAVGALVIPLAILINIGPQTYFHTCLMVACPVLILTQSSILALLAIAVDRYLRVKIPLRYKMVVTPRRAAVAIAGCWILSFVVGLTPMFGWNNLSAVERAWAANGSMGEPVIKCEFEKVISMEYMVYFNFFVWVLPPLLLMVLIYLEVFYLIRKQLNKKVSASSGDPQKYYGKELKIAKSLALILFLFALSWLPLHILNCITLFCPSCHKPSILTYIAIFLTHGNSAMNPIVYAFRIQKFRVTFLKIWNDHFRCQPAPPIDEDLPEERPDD
Description: Adenosine A1 Receptor Functional Assay (A1GAL2). Conditions: CHO-K1 cells overexpressing human A1 receptor, cAMP inducible beta-galactosidase reporter, 4 nM r-PIA/1 uM Forskolin agonist challenge. The format is cell-based. The protocol: Adenosine A1 Receptor Functional Assay (A1GAL2)
To initiate the functional assay, cryopreserved CHO—K1 cells overexpressing the human adenosine A1 receptor and containing a cAMP inducible beta-galactosidase reporter gene were thawed, centrifuged, DMSO containing media removed, and then seeded with fresh culture media into clear 384-well tissue culture treated plates (BD #353961) at a concentration of 10K cells/well. Prior to assay, these plates were cultured for two days at 37° C., 5% CO2, 90% Rh. On the day of the functional assay, culture media was removed and replaced with 45 μL assay medium (Hams/F-12 Modified (Mediatech # 10-080CV) supplemented w/0.1% BSA). Test compounds were diluted and 11 point curves created at a 1000× concentration in 100% DMSO. Immediately after addition of assay media to the cell plates, 50 nL of the appropriate test compound antagonist or agonist control curves were added to cell plates using a Cartesian Hummingbird. Compound curves were allowed to incubate at room temperature on cell plates for approximately 15 minutes before addition of a 4 nM r-PIA (Sigma P4532)/1 uM Forskolin (Sigma F3917) agonist challenge (5 μL volume). A control curve of r-PIA in1 uM Forskolin, a DMSO/Media control, and a single dose of Forskolin were also included on each plate. After additions, cell plates were allowed to incubate at 37° C., 5% CO2, 90% Rh for 5.5-6 hours. After incubation, media was removed, and cell plates were washed 1×50 μL with DPBS w/o Ca & Mg (Mediatech 21-031-CV). Into dry wells, 20 μL of 1×Reporter Lysis Buffer (Promega E3971 (diluted in dH2O from 5× stock)) was added to each well and plates frozen at −20° C. overnight. For β-galactosidase enzyme colorimetric assay, plates were thawed out at room temperature and 20 μL 2×assay buffer (Promega) was added to each well. Color was allowed to develop at 37° C., 5% CO2, 90% Rh for 1-1.5 h or until reasonable signal appeared. The colorimetric reaction was stopped with the addition of 60 μL/well 1M sodium carbonate. Plates were counted at 405 nm on a SpectraMax Microplate Reader (Molecular Devices). Data was analyzed in Microsoft Excel and IC/EC50 curves were fit using a standardized macro.

The target of test [2] is T2, human adenosine A2A receptor (Homo sapiens, UniProt P29274).
T2 construct: expressed in transfected cells; host or cells: CHO-K1 cells with a cAMP inducible beta-galactosidase reporter gene
T2 sequence (P29274 whole entry): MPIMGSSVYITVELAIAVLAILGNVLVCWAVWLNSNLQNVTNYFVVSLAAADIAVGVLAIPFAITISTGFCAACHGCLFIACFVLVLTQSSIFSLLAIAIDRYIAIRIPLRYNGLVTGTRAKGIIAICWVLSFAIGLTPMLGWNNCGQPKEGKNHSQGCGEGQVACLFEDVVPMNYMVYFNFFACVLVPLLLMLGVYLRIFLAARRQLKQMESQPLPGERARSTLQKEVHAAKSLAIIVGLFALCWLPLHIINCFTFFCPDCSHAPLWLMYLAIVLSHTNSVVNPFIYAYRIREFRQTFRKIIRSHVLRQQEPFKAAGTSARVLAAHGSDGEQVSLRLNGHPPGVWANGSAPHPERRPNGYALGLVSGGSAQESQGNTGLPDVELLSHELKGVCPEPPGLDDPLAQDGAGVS
Kind of test: Adenosine A2A Receptor Functional Assay (A2A GAL2). The conditions noted are these: for IC50: CHO-K1 cells overexpressing human A2A receptor, cAMP inducible beta-galactosidase reporter, 15 nM NECA agonist challenge, read-out: A2AGal2; for A1/A2A: ratio of A1Gal2 to A2AGal2 values. The format is cell-based. The protocol:
Adenosine A2A Receptor Functional Assay (A2A GAL2)
To initiate the functional assay, cryopreserved CHO—K1 cells overexpressing the human adenosine A2A receptor and containing a cAMP inducible beta-galactosidase reporter gene were thawed, centrifuged, DMSO containing media removed, and then seeded with fresh culture media into clear 384-well tissue culture treated plates (BD #353961) at a concentration of 10K cells/well. Prior to assay, these plates were cultured for two days at 37° C., 5% CO2, 90% Rh. On the day of the functional assay, culture media was removed and replaced with 45 μL assay medium (Hams/F-12 Modified (Mediatech # 10-080CV) supplemented w/0.1% BSA). Test compounds were diluted and 11 point curves created at a 1000× concentration in 100% DMSO. Immediately after addition of assay media to the cell plates, 50 nL of the appropriate test compound antagonist or agonist control curves were added to cell plates using a Cartesian Hummingbird. Compound curves were allowed to incubate at room temperature on cell plates for approximately 15 minutes before addition of a 15 nM NECA (Sigma E2387) agonist challenge (5 μL volume). A control curve of NECA, a DMSO/Media control, and a single dose of Forskolin (Sigma F3917) were also included on each plate. After additions, cell plates were allowed to incubate at 37° C., 5% CO2, 90% Rh for 5.5-6 hours. After incubation, media were removed, and cell plates were washed 1×50 μL with DPBS w/o Ca & Mg (Mediatech 21-031-CV). Into dry wells, 20 μL of 1×Reporter Lysis Buffer (Promega E3971 (diluted in dH2O from 5× stock)) was added to each well and plates frozen at −20° C. overnight. For β-galactosidase enzyme colorimetric assay, plates were thawed out at room temperature and 20 μL 2× assay buffer (Promega) was added to each well. Color was allowed to develop at 37° C., 5% CO2, 90% Rh for 1-1.5 h or until reasonable signal appeared. The colorimetric reaction was stopped with the addition of 60 μL/well 1M sodium carbonate. Plates were counted at 405 nm on a SpectraMax Microplate Reader (Molecular Devices). Data was analyzed in Microsoft Excel and IC/EC50 curves were fit using a standardized macro.

As for `COCCOc1ccc(N2CCN(c3cccc4c3-c3nc(N)nc(-c5ccccc5)c3C4=O)CC2)cc1` [Example 11, 2-Amino-9-{4-[4-(2-methoxy-ethoxy)-phenyl]-piperazin-1-yl}-4-phenyl-indeno[1,2-d]pyrimidin-5-one], the IC50 in test [1] amounted to 0.25 µM; in test [2], 0.00036 µM. For the same compound, in test [2], the A1/A2A turned out to be 694.444.
Take `Nc1nc(-c2ccccc2)c2c(n1)-c1c(cccc1N1CCC(N3CCOCC3)CC1)C2=O` [Example 24, 2-Amino-9-(4-morpholin-4-yl-piperidin-1-yl)-4-phenyl-indeno[1,2-d]pyrimidin-5-one]: the IC50 in test [1] came out at 0.27 µM. In addition, in test [2], the IC50 is 0.0047 µM and the A1/A2A was 57.4468.
For `Nc1nc(-c2ccccc2)c2c(n1)-c1c(cccc1N1CCN(c3ccc(Cl)cc3)CC1)C2=O` [Example 21, 2-Amino-9-[4-(4-chloro-phenyl)-piperazin-1-yl]-4-phenyl-indeno[1,2-d]pyrimidin-5-one], the IC50 in test [1] amounted to 0.12 µM; in test [2], 0.0015 µM. Also, in test [2], the A1/A2A amounted to 80.
The compound `NC(=O)c1ccc(C2CCN(c3cccc4c3-c3nc(N)nc(-c5ccccc5)c3C4=O)CC2)cc1` [Example 20, 4-[1-(2-Amino-5-oxo-4-phenyl-5H-indeno[1,2-d]pyrimidin-9-yl)-piperidin-4-yl]-benzamide] yielded an IC50 in test [1] of 0.15 µM. Also, in test [2], the IC50 was 0.0015 µM and the A1/A2A is 100.
On the same counts, the results for `CC(=O)c1ccc(N2CCN(c3cccc4c3-c3nc(N)nc(-c5ccccc5)c3C4=O)CC2)cc1` [Example 1, 9-[4-(4-Acetyl-phenyl)-piperazin-1-yl]-2-amino-4-phenyl-indeno[1,2-d]pyrimidin-5-one] are 4.05 µM, 0.0002 µM and 20250.
The compound `COc1ccc(N2CCN(c3cccc4c3-c3nc(N)nc(-c5ccccc5)c3C4=O)CC2)cc1` [Example 16, 2-Amino-9-[4-(4-methoxy-phenyl)-piperazin-1-yl]-4-phenyl-indeno[1,2-d]pyrimidin-5-one] yielded an IC50 in test [1] of 0.025 µM. Further, in test [2], the IC50 amounted to 0.00014 µM and the A1/A2A was 178.571.
`Nc1nc(-c2ccccc2)c2c(n1)-c1c(cccc1N1CCN(c3ccccc3F)CC1)C2=O` [Example 4, 2-Amino-9-[4-(2-fluoro-phenyl)-piperazin-1-yl]-4-phenyl-indeno[1,2-d]pyrimidin-5-one] yielded an IC50 in test [1] of 1.9 µM. Moreover, in test [2], the IC50 was 0.0012 µM and the A1/A2A was 1583.33.
`Nc1nc(-c2ccccc2)c2c(n1)-c1c(cccc1N1CCN(c3ccc(F)cn3)CC1)C2=O` [Example 2, 2-Amino-9-[4-(5-fluoro-pyridin-2-yl)-piperazin-1-yl]-4-phenyl-indeno[1,2-d]pyrimidin-5-one] returned an IC50 in test [1] of 9.5 µM. Also, in test [2], the IC50 was determined as 0.0016 µM and the A1/A2A is 5937.5.
`N#Cc1ccc(N2CCN(c3cccc4c3-c3nc(N)nc(-c5ccccc5)c3C4=O)CC2)cc1` [Example 3, 4-[4-(2-Amino-5-oxo-4-phenyl-5H-indeno[1,2-d]pyrimidin-9-yl)-piperazin-1-yl]-benzonitrile] yielded an IC50 in test [1] of 3.5 µM. In addition, in test [2], the IC50 was found to be 0.0006 µM and the A1/A2A came out at 5833.33.
On the same counts, the results for `Nc1nc(-c2ccccc2)c2c(n1)-c1c(cccc1N1CCN(c3ccc(C(F)(F)F)cc3)CC1)C2=O` [Example 9, 2-Amino-4-phenyl-9-[4-(4-trifluoromethyl-phenyl)-piperazin-1-yl]-indeno[1,2-d]pyrimidin-5-one] are 6.2 µM, 0.0081 µM and 765.432.
As to `CC(=O)C1(c2ccccc2)CCN(c2cccc3c2-c2nc(N)nc(-c4ccccc4)c2C3=O)CC1` [Example 25, 9-(4-Acetyl-4-phenyl-piperidin-1-yl)-2-amino-4-phenyl-indeno[1,2-d]pyrimidin-5-one], the figures for the IC50 in test [1] and in test [2] were 0.22 µM and 0.0042 µM, respectively. The A1/A2A in test [2] was determined as 52.381.
On the same counts, the results for `CCCN1CCN(c2cccc3c2-c2nc(N)nc(-c4ccccc4)c2C3=O)CC1` [Example 19, 2-Amino-4-phenyl-9-(4-propyl-piperazin-1-yl)-indeno[1,2-d]pyrimidin-5-one] are 1.08 µM, 0.0103 µM and 104.858.
On the same counts, the results for `COCCOc1ccc(N2CCN(c3cccc4c3-c3nc(N)nc(-c5ccccc5)c3C4=O)CC2)c(F)c1` [Example 5, 2-Amino-9-{4-[2-fluoro-4-(2-methoxy-ethoxy)-phenyl]-piperazin-1-yl}-4-phenyl-indeno[1,2-d]pyrimidin-5-one] are 0.75 µM, 0.00049 µM and 1530.61.
On the same counts, the results for `CS(=O)(=O)c1ccc(N2CCN(c3cccc4c3-c3nc(N)nc(-c5ccccc5)c3C4=O)CC2)cc1` [Example 15, 2-Amino-9-[4-(4-methanesulfonyl-phenyl)-piperazin-1-yl]-4-phenyl-indeno[1,2-d]pyrimidin-5-one] are 0.1 µM, 0.00044 µM and 227.273.
`N#Cc1ccc(N2CCN(c3cccc4c3-c3nc(N)nc(-c5ccccc5)c3C4=O)CC2)nc1` [Example 8, 6-[4-(2-Amino-5-oxo-4-phenyl-5H-indeno[1,2-d]pyrimidin-9-yl)-piperazin-1-yl]-nicotinonitrile] gave an IC50 in test [1] of 2.1 µM. For the same compound, in test [2], the IC50 stood at 0.0027 µM and the A1/A2A is on record as 777.778.
As for `N#Cc1ccccc1N1CCN(c2cccc3c2-c2nc(N)nc(-c4ccccc4)c2C3=O)CC1` [Example 7, 2-[4-(2-Amino-5-oxo-4-phenyl-5H-indeno[1,2-d]pyrimidin-9-yl)-piperazin-1-yl]-benzonitrile], the IC50 in test [1] is 2.9 µM; in test [2], 0.0027 µM. Besides, in test [2], the A1/A2A came out at 1074.07.
Turning to `Nc1nc(-c2ccccc2)c2c(n1)-c1c(cccc1N1CCN(c3ccc(F)cc3F)CC1)C2=O` [Example 6, 2-Amino-9-[4-(2,4-difluoro-phenyl)-piperazin-1-yl]-4-phenyl-indeno[1,2-d]pyrimidin-5-one], in test [1], the IC50 is 2.9 µM. In addition, in test [2], the IC50 turned out to be 0.0026 µM and the A1/A2A is 1115.38.
